Results as given in patent US3952061A, “Method of isomerizing humulone to isohumulone by catalytic acceleration with metal salts” (Atlantic Research Institute Limited, priority 1967, dated 1976).
Read-outs that look alike come from different tables or passages of the source.

What was measured:
[1] = format: physicochemical
Description: The acceleration of the isomerization in accordance with the present invention is particularly striking at pH values of between 4 and 8. […] For the characterization of this acceleration of the conversion of humulone to isohumulone, reaction-kinetic experiments at different temperatures are shown in the accompanying figures. As reaction media there is used an 0.1 and 0.025 molar sodium acetate solution to which there are added in each case the metal salts in concentrations of 10^^-3 mol/liter and 10^^-4 mol/liter, respectively. Furthermore, pure metal salt solutions of higher concentration (0.025 mol/liter) (FIG. 2) of different pH were also used for the conversion of the humulone.
By way of comparison, the slow isomerization reaction in pure phosphate buffers is also recorded. It should be emphasized that the sodium acetate in the reaction solutions is not necessary for the reaction itself, but merely serves to maintain the pH constant. […] For FIGS. 1 and 2, the logarithm of the humulone extinction measured in a spectral photometer was plotted against the reaction time (in accordance with the law of Lambert and Beer, the extinction is directly proportional to the concentration).

tubercular bacteria = conditions: tests in vitro; cited from earlier work

Molecule	Half-Life about (bacl2 solution, pH 6.9) [min]	Half-Life about (cacl2 solution, pH 6.6) [min]	Half-Life about (cecl3 solution, pH 4.2) [min]	Half-Life about (niso4 solution, pH 4.7) [min]	Half-Life about (phosphate buffer, pH 5.5) [min]	Half-Life about (phosphate buffer, pH 7.2) [min]	Half-Life ([1]; acetate buffer + cacl2, pH 8) [min]	Half-Life ([1]; acetate buffer + cdcl2, pH 7) [min]	Half-Life ([1]; acetate buffer + mgcl2, pH 7.5) [min]	Half-Life ([1]; acetate buffer + mgcl2, pH 8) [min]	Half-Life ([1]; acetate buffer + mncl2, pH 7.5) [min]	Half-Life ([1]; acetate buffer + niso4, pH 6.5) [min]	Half-Life ([1]; acetate buffer, pH 7) [min]	Half-Life ([1]; phosphate buffer, pH 5.5) [min]	activity compared with Conteben (tubercular bacteria)
humulone	~9	~2	~10	~0.7	~100	~100	22	5.9	7.3	2.6	3.2	2.5	360	120	
CC(C)=CCC(=O)C1(O)C(O)=C(C(=O)CC(C)C)C(=O)C1CC=C(C)C (stereo not drawn) [isohumulone]															practically just as active as Conteben
